In one data set the target is human 5-HT2A receptor (Homo sapiens, UniProt P28223). Briefly: Human 5-HT2A radioligand binding assay ([3H]-ketanserin). As for the experimental part:
The objective of this study was to evaluate the binding properties of exemplary compounds of Formula I on 5-hydroxytryptamine receptor 2A (5-HT2A).
• 1. The assay buffer was prepared following the table below.
• 2. 8 doses of reference and test compounds starting from 10 mM stock solution as required was prepared by 5-fold serial dilutions with 100% (v/v) DMSO. • 3. UniFilter-96 GF/B plate was pretreated: • i. 50 μl/well of 0.5% (v/v) PEI was added to […]. The plates were sealed and incubated at […] for 3 hrs. • ii. After incubation, the plates were washed 3 times with ice-cold wash buffer (50 mM Tris, pH7.4). • 4. The assay plate was prepared: • i. Cell membrane was diluted with assay buffer and 330 μl/well was added to 96 round deep well plates to reach a concentration of 20 μg/well. • ii. 8 concentrations of reference or test compounds were prepared and 110 μl/well was added to 96 round deep well plates. • iii. [3H]-ketanserin was diluted with assay buffer to 5 nM (5×final concentration) and 110 μl/well was added to 96 round deep well plates. • 5. The plate was centrifuged at 1000 rpm for 30 secs and then agitated at 600 rpm, R.T. for 5 min. • 6. The plates were sealed and the plate incubated at 279C for 90 min. • 7. The incubation was stopped by vacuum filtration onto GF/B filter plates followed by 4 times washing with ice-cold wash buffer (50 mM Tris, pH7.4). • 8. The plates were dried at 379C for 45 min. • 8. The filter plates were sealed and 40 μl/well of scintillation cocktail was added. • 10. The plate was read by using a Microbeta^2 microplate counter.
• 1. For reference and test compounds, the results were expressed as % Inhibition, using the normalization equation: N=100−100×(U−C2)/(C1−C2), where U is the unknown value, C1 is the average of high controls, and C2 is the average of low controls. • 2. The IC50 was determined by fitting percentage of inhibition as a function of compound concentrations with Hill equation using XLfit.

The nature of data set [1]: Liver microsomes stability, human. The following applies: for Remaining Percentage (%) after 60 min, Human, With cofactors / Remaining Percentage (%) after 60 min, Human, Without cofactors: human liver microsomes; for half-life at 2 μM / microsomal CLint at 2 μM / metabolic stability in liver microsomes (statement): human; for half-life at 2 μM / microsomal CLint at 2 μM: pooled human liver microsomes; for metabolic stability in liver microsomes (statement): rat and mouse liver microsomes. As for the experimental part: 40 μL of 10 mM NADPH solution was added to each well. The final concentration of NADPH was 1 mM. The negative control samples were prepared by replacing NADPH with 40 μL of ultra-pure H2O. Samples were prepared in duplicate. Negative controls were prepared in singlet.
This study was performed in duplicate.
LC/MS analysis was performed for all samples from this study using a Shimadzu liquid chromatograph separation system equipped with degasser DGU-20A5R; solvent delivery unit LC-30AD; system controller SIL-30AC; column oven CTO-30A; CTC Analytics HTC PAL System. Mass spectrometric analysis was performed using a Triple Quad™ 5500 instrument.
All calculations were carried out using Microsoft Excel.
All calculations were carried out using Microsoft Excel. Peak areas were determined from extracted ion chromatograms.
(Liver microsomes are vesicles of endoplasmic reticulum, rich in cytochrome P450 enzymes.)

Molecules are shown by their SMILES.

human 5-HT2A receptor, sequence (P28223 whole entry): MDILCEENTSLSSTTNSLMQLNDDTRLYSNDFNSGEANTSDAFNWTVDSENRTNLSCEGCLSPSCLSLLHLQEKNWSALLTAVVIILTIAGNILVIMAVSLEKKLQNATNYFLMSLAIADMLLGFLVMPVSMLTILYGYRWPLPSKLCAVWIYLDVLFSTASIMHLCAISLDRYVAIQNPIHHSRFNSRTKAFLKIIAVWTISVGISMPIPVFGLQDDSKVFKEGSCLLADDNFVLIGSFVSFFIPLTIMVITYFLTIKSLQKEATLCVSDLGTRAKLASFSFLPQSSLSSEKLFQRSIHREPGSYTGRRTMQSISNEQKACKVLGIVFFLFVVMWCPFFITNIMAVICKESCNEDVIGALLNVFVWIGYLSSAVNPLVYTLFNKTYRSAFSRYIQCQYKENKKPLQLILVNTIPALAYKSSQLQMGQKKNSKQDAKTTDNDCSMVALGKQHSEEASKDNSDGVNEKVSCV

Broadly, the IC50 is the concentration needed to halve the response being measured. The low end stands for higher potency, the high end for lower potency. `CN1CCC[C@@H]1Cc1c[nH]c2cccc(O)c12` [Compound 10, (R)-3-((1-methylpyrrolidin-2-yl)methyl)-1H-indol-4-ol] gave an IC50 at human 5-HT2A receptor of 219 nM.

`[2H]C([2H])(c1c[nH]c2cccc(O)c12)[C@H]1CCCN1C([2H])([2H])[2H]` [Compound 13, (R)-3-((1-(methyl-d3)pyrrolidin-2-yl)methyl-d2)-1H-indol-4-ol] returned an IC50 on human 5-HT2A receptor of 219 nM.

For `CN(C)CCc1c[nH]c2cccc(O)c12` [Psilocin, 4-hydroxy-N,N-dimethyltryptamine, reference compound], the “t1/2 Human” value in data set [1] (human liver microsomes with NADPH, 2 μM) is 117.32 min. The “Remaining Percentage (%) after 60 min, Human, With cofactors” value (shortened to “Remaining Percentage (%) … With cofactors”) in data set [1] turned out to be 70.16%.

As a reminder, the half-life is how long it takes for the measured level to halve. The low end stands for fast loss, the high end for slow loss. As usually defined, the microsomal CLint is a measure of how fast metabolising enzymes remove a compound, apart from limits set by blood flow. Low readings indicate slow turnover, high ones rapid turnover. As for `[2H]C([2H])(c1c[nH]c2cccc(OC(=O)CCCC(=O)Oc3cccc4[nH]cc(C([2H])([2H])[C@H]5CCCN5C([2H])([2H])[2H])c34)c12)[C@H]1CCCN1C([2H])([2H])[2H]` [Compound I-22, bis(3-(((R)-1-(methyl-d3)pyrrolidin-2-yl)methyl-d2)-1H-indol-4-yl) glutarate], in data set [1], the “Remaining Percentage (%) … With cofactors” value is given as 0%; the “Remaining Percentage (%) after 60 min, Human, Without cofactors” value amounted to 1.38%; the half-life at 2 μM turned out to be 4.67 min; the microsomal CLint at 2 μM was found to be 297 µL/min/mg. In data set [1], the “metabolic stability in liver microsomes (statement)” value was “rapidly metabolized”. The same compound returned an IC50 on human 5-HT2A receptor of 44.8 nM.

`CN1CCC[C@@H]1Cc1c[nH]c2cccc(OC(=O)CCCC(=O)Oc3cccc4[nH]cc(C[C@H]5CCCN5C)c34)c12` [Compound I-13, Bis(3-(((R)-1-methylpyrrolidin-2-yl)methyl)-1H-indol-4-yl) glutarate]: in data set [1], the “Remaining Percentage (%) … With cofactors” value turned out to be 0%; the “Remaining Percentage (%) after 60 min, Human, Without cofactors” value is 0%; the half-life at 2 μM was below 4.51 min; the intrinsic metabolic clearance (microsomal CLint) at 2 μM is above 307 µL/min/mg. In addition, the “metabolic stability in liver microsomes (statement)” value in data set [1] was “rapidly metabolized”. The IC50 at human 5-HT2A receptor came to 37 nM.

The values above are taken from patent US20260274876A1, “3-PYRROLIDINE-INDOLE DIMERS AS SEROTONERGIC AGENTS USEFUL FOR THE TREATMENT OF DISORDERS RELATED THERETO” (MINDSET PHARMA INC., priority 2022, published 2026).
